Like-named read-outs stand apart in the source and are kept apart here.
What was measured:
[1] = approximately 5 ml of 8.4% solution
Protocol: In particular, 5 mls of this 8.4% solution can be administered into a patient's stomach at least 15 minutes prior to baseline measurement of gastric juice pH and administration of stimulant, such as pentagastrin.

[2] = cited from earlier work
[3] = in vivo; cited from earlier work
[4] = cited from earlier work; for Volume of HCl neutralized by 30 ml: 30 ml (sodium citrate 0.3M)
[5] = system: gastric juice pH; settings: cited from earlier work
[6] = system: gastric juice pH; settings: 30 ml of 0.3 M, pretreatment in elective cesarean section patients; cited from earlier work

## O=C([O-])O.[Na+] [sodium bicarbonate]
[1]
  volume of gastric juice (pH 1.0) neutralized: 50 ml

## Cl.Cl.NCCc1ccn[nH]1 [betazole hydrocholoride]
[2]; orally administered
  side effects: few side effects

## NCCc1c[nH]cn1 [histamine]
[2]; large doses
  side effects: severe hypotension

## CSCC[C@H](NC(=O)[C@H](Cc1c[nH]c2ccccc12)NC(=O)CCNC(=O)OC(C)(C)C)C(=O)N[C@@H](CC(=O)O)C(=O)N[C@@H](Cc1ccccc1)C(N)=O [pentagastrin]
[3]
  half-life: approximately 10 minutes
[2]; in vivo
  safety profile: very good safety profile
[2]; intravenous 0.5 mcg/kg bolus over 30 seconds
  side effects: abdominal fullness and an urge to defecate
[2]; intravenous administration
  side effects: transient mild side effects, e.g., anxiety, palpitations

## O=C([O-])CC(O)(CC(=O)[O-])C(=O)[O-].[Na+].[Na+].[Na+] [Sodium Citrate, sodium citrate]
[4]; HCl pH 0.8
  Volume of HCl neutralized by 30 ml: 140 mL
[4]; HCl pH 1 (1.0)
  Volume of HCl neutralized by 30 ml: 255 mL
[4]; HCl pH 1 (1.0), listed as sodium citrate
  Volume of HCl neutralized by 30 ml: up to 255 ml
[4]; HCl pH 1.5
  Volume of HCl neutralized by 30 ml: 750 mL
[4]; presumably pH of the antacid itself, not explained
  pH (value in parentheses after the antacid's name): Sodium Citrate (8.5)
[5]; 50 ml of 0.3 M into the stomach via nasogastric tube, within two minutes, baseline 1.2±0.1
  gastric juice pH, mean after administration: 4.8
[5]; 50 ml of 0.3 M via nasogastric tube, within two minutes
  gastric juice pH, range after administration: 6.7-7.0
[5]; 50 ml of 0.3 M
  time gastric juice pH maintained above 6: at least 2 hours
[5]; 50 ml of 0.3 M, for at least 2 hours
  gastric juice pH maintained after administration: above 6
[6]
  change in gastric juice pH: significant increase in gastric juice pH

— patent US11925450B2, “Methods and apparatus for guiding medical care based on detected gastric function” (Gravitas Medical, Inc., priority 2011, dated 2024)
